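How tested: cells in 96-well plates exposed to compound for 48 hours at five concentrations. At the GI50, growth is halved.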 Calls of active or inactive are those of the source. No stated cut-off is given here; in the data, active = GI50 up to about 1.1 µM and inactive = higher.

These results are taken from ChEMBL document CHEMBL1201862, “PubChem BioAssay data set” (2004).

Among the test systems are BT-549; LOX IMVI; UACC-62; ACHN; SN12C; SR; M14; NCI-H460; SF-268; SF-295; SNB-75; 786-0; SF-539; IGROV-1; HT-29; HOP-92; HL-60; NCI-H23; Hs-578T.
Holding throughout (assay): DTP human tumour cell line panel, 48 h

As usually defined, the GI50 is the concentration that inhibits growth by half. As to `[N-]=[N+]=CC(=O)COC(=O)c1ccccc1`, the GI50 with BT-549 was > 100 µM (inactive); with LOX IMVI, > 100 µM (inactive); in the assay with UACC-62, > 100 µM (inactive); with ACHN, > 100 µM (inactive); in the assay with SN12C, > 100 µM (inactive); in the assay with SR it was 74.6 µM (inactive). The GI50 in the assay on M14, in the assay with NCI-H460, in the assay on SF-268, in the assay on SF-295, in the assay with SNB-75 and in the assay on 786-0 was > 100 µM (inactive) throughout. The GI50 in the assay on SF-539 was > 100 µM (inactive); in the assay with IGROV-1, > 100 µM (inactive); with HT-29, > 100 µM (inactive); in the assay on HOP-92, 78 µM (inactive); in the assay on HL-60 it was > 100 µM (inactive); in the assay with NCI-H23, > 100 µM (inactive).

As to `c1ccc(COc2ccc(C[P+](c3ccccc3)(c3ccccc3)c3ccccc3)cc2)cc1`, the GI50 was 0.139 µM (active) in the assay with BT-549; 0.251 µM (active) in the assay with LOX IMVI; 0.195 µM (active) with UACC-62; 0.676 µM (active) in the assay with ACHN; 0.305 µM (active) with SN12C; 0.46 µM (active) in the assay with SR. Besides, the GI50 in the assay on M14 is 0.366 µM (active); with NCI-H460, 0.225 µM (active); with SF-268, 0.261 µM (active); in the assay with SF-295, 0.318 µM (active); in the assay on SNB-75, 0.148 µM (active); in the assay with 786-0 it was 0.371 µM (active). Further, the GI50 in the assay on SF-539 is 0.284 µM (active); in the assay on IGROV-1, 0.294 µM (active); with HT-29, 0.19 µM (active); in the assay with HOP-92, 0.153 µM (active); in the assay with HL-60 it was 0.0682 µM (active); with NCI-H23, 0.2 µM (active).

Regarding `Cc1ccc([S+]([O-])c2cccs2)cc1` (stereo unspecified), the GI50 in the assay on BT-549, with ACHN, in the assay on SN12C, in the assay on SR, in the assay on M14 and with NCI-H460 was > 100 µM (inactive) each time. The GI50 in the assay with SF-268, in the assay on SF-295, in the assay with 786-0, in the assay with SF-539, in the assay with HT-29 and in the assay on HOP-92 was > 100 µM (inactive) in each case. For the same molecule, the GI50 in the assay with HL-60 and in the assay on NCI-H23 was > 100 µM (inactive) throughout.

On to `N[C@H]1CCc2c1nc1c(c2-c2ccccc2)CC[C@@H]1N`, for which the GI50 in the assay on BT-549 was 12.4 µM (inactive); with LOX IMVI it was 14 µM (inactive); in the assay with ACHN it was 40.1 µM (inactive); in the assay on SN12C, 44.1 µM (inactive); in the assay on SR it was 31.5 µM (inactive); in the assay with M14, 16.3 µM (inactive). Also, the GI50 in the assay with NCI-H460 was 25.6 µM (inactive); in the assay with SF-268, 18.1 µM (inactive); with SF-295, 18.5 µM (inactive); with SNB-75 it was 11.9 µM (inactive); with 786-0, 14.7 µM (inactive); in the assay with SF-539, 16.1 µM (inactive). Besides, the GI50 in the assay with IGROV-1 is 14.7 µM (inactive); in the assay with HT-29, 11.9 µM (inactive); with HOP-92, 21.3 µM (inactive); in the assay on HL-60, 15.7 µM (inactive); in the assay on NCI-H23, 25.2 µM (inactive).

As to `CCC(/C=C/c1ccccc1)=N\Nc1ccc(Cl)c(Cl)c1`, the GI50 is 55.3 µM (inactive) in the assay on Hs-578T; 22.8 µM (inactive) in the assay with LOX IMVI; 13.9 µM (inactive) in the assay with UACC-62; 26.7 µM (inactive) in the assay on ACHN; 24.4 µM (inactive) in the assay with SN12C; 34.8 µM (inactive) in the assay on SR. In addition, the GI50 with M14 is 56.4 µM (inactive); with NCI-H460, 33.3 µM (inactive); with SF-268, 36.3 µM (inactive); in the assay on SF-295, 34.7 µM (inactive); in the assay with SNB-75, 41.3 µM (inactive); with 786-0, 34.4 µM (inactive). The GI50 was 25.8 µM (inactive) in the assay with SF-539; 5.14 µM (inactive) in the assay on IGROV-1; 35.8 µM (inactive) in the assay with HT-29; 13.6 µM (inactive) in the assay with HOP-92; 27.8 µM (inactive) with HL-60; 30.9 µM (inactive) in the assay on NCI-H23.

For the molecule `CCOC(CN(C)C(=S)Nc1cccc2ccccc12)OCC`, the GI50 in the assay with Hs-578T, in the assay on LOX IMVI, with UACC-62, with ACHN, in the assay on SN12C and with SR was > 10 µM (inactive) in each case. In addition, the GI50 with M14, with NCI-H460, with SF-268, in the assay with SF-295, in the assay on SNB-75 and with 786-0 was > 10 µM (inactive) in each case. The GI50 in the assay on SF-539 was > 10 µM (inactive); in the assay on IGROV-1, > 10 µM (inactive); in the assay on HT-29 it was > 10 µM (inactive); with HOP-92, 5.51 µM (inactive); in the assay on HL-60, > 10 µM (inactive); with NCI-H23 it was > 10 µM (inactive).

Regarding `O=c1[nH]ncc2[nH]c3c4ccccc4ccc3c12`, the GI50 with BT-549 was 93.8 µM (inactive); in the assay with LOX IMVI, 25.4 µM (inactive); with ACHN it was 27.9 µM (inactive); in the assay with SR it was 31.3 µM (inactive); in the assay on M14 it was 94.6 µM (inactive); in the assay with NCI-H460, 32.1 µM (inactive). Moreover, the GI50 in the assay on SF-268 is 37.2 µM (inactive); with SF-295, 22.6 µM (inactive); in the assay on 786-0 it was 61.7 µM (inactive); with SF-539, 50.1 µM (inactive); with HT-29, 39 µM (inactive); with HOP-92 it was 14 µM (inactive). Also, the GI50 with HL-60 was 80.7 µM (inactive).

As for `COc1cccc2c(NNc3ccccc3)c3ccc([N+](=O)[O-])cc3nc12`, the GI50 in the assay with BT-549 is 12.1 µM (inactive); in the assay with LOX IMVI, 13.6 µM (inactive); in the assay with UACC-62, 6.41 µM (inactive); in the assay on ACHN, 20.2 µM (inactive); with SN12C, 47.1 µM (inactive); in the assay on SR, 18.7 µM (inactive). The GI50 in the assay with M14 was 24 µM (inactive); in the assay on NCI-H460 it was 32.3 µM (inactive); in the assay on SF-268, 19.6 µM (inactive); in the assay with SF-295 it was 27.5 µM (inactive); in the assay with 786-0, 21.2 µM (inactive); with SF-539, 36.4 µM (inactive). Besides, the GI50 in the assay with IGROV-1 is 21.7 µM (inactive); with HT-29 it was 23.6 µM (inactive); in the assay on HOP-92 it was 26.4 µM (inactive); in the assay on NCI-H23, 20.5 µM (inactive).

As for `COC(=O)/C=C1\CCC(C)(C(=O)NS(=O)(=O)c2ccc(C)cc2)C1(C)C` (stereo unspecified), the GI50 with BT-549, with LOX IMVI, with UACC-62, in the assay on ACHN, with SN12C and with M14 was > 100 µM (inactive) in each case. In addition, the GI50 in the assay on NCI-H460, with SF-268, in the assay on SF-295, in the assay on 786-0, with SF-539 and in the assay on IGROV-1 was > 100 µM (inactive) throughout. Besides, the GI50 in the assay with HOP-92, in the assay on HL-60 and in the assay with NCI-H23 was > 100 µM (inactive) in each case.

Take `COc1cc(/C=C/C(=O)OC2C(O)C3CC(OC(=O)c4cc(OC)c(OC)c(OC)c4)CC2N3C)cc(OC)c1OC` (stereo unspecified): the GI50 is > 50 µM (inactive) with BT-549; 15.3 µM (inactive) in the assay on LOX IMVI; > 50 µM (inactive) in the assay on UACC-62; 21.9 µM (inactive) with ACHN; 9.89 µM (inactive) in the assay on SN12C; 10.1 µM (inactive) with SR. The GI50 was > 50 µM (inactive) in the assay with M14; 21.8 µM (inactive) in the assay with NCI-H460; > 50 µM (inactive) in the assay with SF-268; 23.4 µM (inactive) with SF-295; 8.73 µM (inactive) in the assay on SNB-75; 18.5 µM (inactive) in the assay with 786-0. Also, the GI50 was 21.4 µM (inactive) in the assay on SF-539; 0.43 µM (active) with IGROV-1; 14.2 µM (inactive) with HT-29; 9.77 µM (inactive) with HOP-92; > 50 µM (inactive) in the assay with NCI-H23.

As for `CC(=O)O[C@H]1C(=O)[C@@]2(C)C(C(OC(=O)c3ccccc3)[C@]3(O)CC(OC(=O)C(O)C(NC(=O)c4ccccc4)c4cccc(Cl)c4)C(C)=C1C3(C)C)[C@]1(OC(C)=O)CO[C@@H]1C[C@@H]2O` (stereo partly specified), the GI50 with BT-549 is > 10 µM (inactive); in the assay on LOX IMVI, 4.29 µM (inactive); with UACC-62, 2.33 µM (inactive); with ACHN, > 10 µM (inactive); in the assay on SN12C, 4.17 µM (inactive); in the assay on SR, 1.47 µM (inactive). Also, the GI50 in the assay with M14 was > 10 µM (inactive); in the assay on NCI-H460 it was 5.28 µM (inactive); with SF-268 it was 7.26 µM (inactive); in the assay with SF-295, > 10 µM (inactive); in the assay with SNB-75 it was 2.62 µM (inactive); in the assay on 786-0, > 10 µM (inactive). For the same molecule, the GI50 with SF-539 was 3.24 µM (inactive); in the assay with IGROV-1, 3.88 µM (inactive); with HT-29, 2.46 µM (inactive); in the assay on HL-60, 1.38 µM (inactive); in the assay on NCI-H23, 4.39 µM (inactive).

Consider `O=C(c1cccs1)N1CCCN(C(=O)c2cccs2)C1=S`, for which the GI50 in the assay on BT-549, with Hs-578T, in the assay on LOX IMVI, in the assay with UACC-62, in the assay on ACHN and with SN12C was > 100 µM (inactive) each time. In addition, the GI50 with M14, in the assay on SF-268, in the assay with SF-295, in the assay on 786-0, in the assay on SF-539 and in the assay on IGROV-1 was > 100 µM (inactive) each time. The GI50 with HT-29, with HL-60 and with NCI-H23 was > 100 µM (inactive) each time.
